Assay [1] concerns INS-1E cells. In words: cells. The format is cell-based, rat.
The subject of assay [2] is INS-1E cells. Type of assay: cell-based, rat. To be noted: 0.1 mM glucose; for 0.1mMGluc_INS1E SecretionMod Act IC50/EC50: assay number 9.
In assay [3] the test system is tonic K+ channel activity in INS-1E cells. The experiment in a line: cells. The format is cell-based, rat. To be noted: for 0.1mMGluc_INS1E FluxOR IC50/EC50: assay number 10; for pIC50: Rattus norvegicus, INS-1E, read-out: K+ channel assay IC50.
The next assay has as its system HeLa cells. The experiment in a line: cells. To be noted: for Hela CellCycMod PI 2N IC50/EC50: assay number 14; for Hela CellCycMod PI S Phase IC50/EC50: assay number 15; for Hela CellCycMod PI 4N IC50/EC50: assay number 16; for Hela CellCycMod PI MI IC50/EC50: assay number 17; for Hela CellCycMod PI Cell Number IC50/EC50: assay number 18; for pEC50: Homo sapiens, HeLa, read-out: CellCycle G2/M. Type of assay: cell-based.

Another assay concerns SW480. The experiment in a line: cells. The format is cell-based. To be noted: Homo sapiens.
Assay [4] deals with nuclear β-catenin in C2C12 cells. In words: cells. Type of assay: cell-based. The conditions noted are these: Mus musculus.
Another assay relates to NCI-H716 cells. The experiment in a line: cells. The format is cell-based, Human.
Assay [5] relates to endothelial tube formation in co-cultures of ECFCs and ADSCs treated with VEGF. In words: cells. Type of assay: cell-based, human. The conditions noted are these: Homo sapiens, read-out: Anti-Angio IC50.
Assay [6] deals with HCT116 cells treated with a GSK3β inhibitor. In words: cells. The format is cell-based. The conditions noted are these: Homo sapiens.
Another assay relates to DLD-1. The experiment in a line: cells. To be noted: Homo sapiens. Type of assay: cell-based.
In another assay the test system is HCT116. The experiment in a line: cells. To be noted: Homo sapiens. Type of assay: cell-based.

pEC50, pIC50: −log10 of the molar value. Like-named read-outs stand apart in the source and are kept apart here.
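Throughout, for 5mMGluc INS1E SecretionMod IC50/EC50: secreted insulin quantified by homogeneous immunoassay.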
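Throughout, for IC50/EC50, 5mMGluc INS1E SecretionMod (assay number 8): secreted insulin quantified by homogeneous immunoassay.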

On to `CN(C)C/C=C(/c1ccc(Br)cc1)c1cccnc1.Cl.Cl.O` [NCGC00025286-04], for which the “5mMGluc_INS1E SecretionMod IC50/EC50” value in the assay on INS-1E cells [1] (assay number 8; 5 mM glucose) was 8.361 µM. In addition, in the assay on INS-1E cells [2], the “0.1mMGluc_INS1E SecretionMod Act IC50/EC50” value was greater than 33.33 µM. Moreover, in assay [3] (0.1 mM glucose), the “0.1mMGluc_INS1E FluxOR IC50/EC50” value came out at 27.874 µM.

Take `Cc1ccc(S(=O)(=O)NC(=O)NN2CC3CCCC3C2)cc1` (centres unmarked) [NCGC00095107-09]: the “5mMGluc_INS1E SecretionMod IC50/EC50” value in the assay on INS-1E cells [1] (assay number 8; 5 mM glucose) amounted to 1.834 µM. In addition, the “Hela CellCycMod PI 2N IC50/EC50” value with HeLa cells (2N) was greater than 10 µM. In addition, in the assay on HeLa cells, the “Hela CellCycMod PI S Phase IC50/EC50” value is given as greater than 10 µM and the “Hela CellCycMod PI Cell Number IC50/EC50” value is greater than 10 µM. Also, in the assay on HeLa cells (4N), the “Hela CellCycMod PI 4N IC50/EC50” value is reported as greater than 10 µM. For the same molecule, the “Hela CellCycMod PI MI IC50/EC50” value in the assay with HeLa cells (MI) is listed as greater than 10 µM. The “0.1mMGluc_INS1E SecretionMod Act IC50/EC50” value in the assay on INS-1E cells [2] was greater than 33.33 µM. Also, the “0.1mMGluc_INS1E FluxOR IC50/EC50” value in assay [3] (0.1 mM glucose) is 0.6403 µM.

Take `CCN(CC)CCOc1ccccc1C(=O)CCc1ccccc1` [NCGC00160484-02]: the “IC50/EC50, 5mMGluc_INS1E SecretionMod (assay number 8)” value in the assay with INS-1E cells [1] (5 mM glucose) amounted to 3.892 µM. Further, the “IC50/EC50, Hela CellCycMod PI 2N (assay number 14)” value in the assay with HeLa cells (2N) was greater than 10 µM. Besides, the “IC50/EC50, Hela CellCycMod PI 4N (assay number 16)” value in the assay on HeLa cells (4N) is recorded as greater than 10 µM. Further, the “IC50/EC50, Hela CellCycMod PI Cell Number (assay number 18)” value in the assay with HeLa cells (Cell Number) is greater than 10 µM. Further, the “IC50/EC50, Hela CellCycMod PI MI (assay number 17)” value with HeLa cells (MI) is on record as greater than 10 µM. For the same molecule, the “IC50/EC50, Hela CellCycMod PI S Phase (assay number 15)” value in the assay on HeLa cells (S Phase) is on record as greater than 10 µM. The “IC50/EC50, 0.1mMGluc_INS1E SecretionMod Act (assay number 9)” value in the assay on INS-1E cells [2] is given as greater than 33.33 µM. Moreover, the “IC50/EC50, 0.1mMGluc_INS1E FluxOR (assay number 10)” value in [3] (0.1 mM glucose) amounted to 6.739 µM.

Consider `CCN(CC)CCCN(c1ccccc1)C1Cc2ccccc2C1.Cl` [NCGC00167576-02], for which the “5mMGluc_INS1E SecretionMod IC50/EC50” value in the assay on INS-1E cells [1] (assay number 8; 5 mM glucose) is 7.1279 µM. For the same molecule, the “0.1mMGluc_INS1E SecretionMod Act IC50/EC50” value with INS-1E cells [2] is greater than 33.33 µM. Further, the “0.1mMGluc_INS1E FluxOR IC50/EC50” value in assay [3] (0.1 mM glucose) was determined as 14.9742 µM.

Turning to `CC(C)C1CCC(C(=O)N[C@H](Cc2ccccc2)C(=O)O)CC1` (some centres unmarked) [NCGC00178741-03], the “5mMGluc_INS1E SecretionMod IC50/EC50” value with INS-1E cells [1] (assay number 8; 5 mM glucose) stood at 7.074 µM. Further, the “0.1mMGluc_INS1E SecretionMod Act IC50/EC50” value with INS-1E cells [2] was greater than 33.33 µM. The “0.1mMGluc_INS1E FluxOR IC50/EC50” value in assay [3] (0.1 mM glucose) was 0.2515 µM.

As for `CC1CC(=O)NN=C1c1ccc(NCC(C)(C)NCC(O)COc2cc(Cl)ccc2C#N)cc1` (centres unmarked) [NCGC00249416-01], the “5mMGluc_INS1E SecretionMod IC50/EC50” value in the assay on INS-1E cells [1] (assay number 8; 5 mM glucose) is listed as 15.1547 µM. The “0.1mMGluc_INS1E SecretionMod Act IC50/EC50” value in the assay with INS-1E cells [2] is reported as greater than 33.33 µM. Also, the “0.1mMGluc_INS1E FluxOR IC50/EC50” value in assay [3] (0.1 mM glucose) worked out at 84.8421 µM.

With `Cc1ccc(CCn2c3c(c4cc(Cl)ccc42)CN(C)CC3)cn1` [NCGC00253726-01], the “5mMGluc_INS1E SecretionMod IC50/EC50” value in the assay on INS-1E cells [1] (assay number 8; 5 mM glucose) was determined as 4.201 µM. In addition, the “Hela CellCycMod PI 2N IC50/EC50” value with HeLa cells (2N) is recorded as greater than 10 µM. Besides, in the assay with HeLa cells, the “Hela CellCycMod PI S Phase IC50/EC50” value is given as greater than 10 µM and the “Hela CellCycMod PI Cell Number IC50/EC50” value is given as greater than 10 µM. Also, the “Hela CellCycMod PI 4N IC50/EC50” value with HeLa cells (4N) was greater than 10 µM. Moreover, the “Hela CellCycMod PI MI IC50/EC50” value in the assay on HeLa cells (MI) is given as greater than 10 µM. Besides, in the assay on INS-1E cells [2], the “0.1mMGluc_INS1E SecretionMod Act IC50/EC50” value is on record as greater than 33.33 µM. For the same molecule, the “0.1mMGluc_INS1E FluxOR IC50/EC50” value in [3] (0.1 mM glucose) is listed as 39.9057 µM.

In the case of `CC(CC1c2ccccc2CCc2ccccc21)CN(C)C` (centres unmarked) [butriptyline, reference compound], the pIC50 is 5.11 with SW480 (SW480, 72 h, read-out: SW480 viab. IC50); 5.11 in the assay with SW480 (SW480, read-out: Basal_Viability ATP SW480); less than 5.00 in [5]; less than 4.70 in assay [6] (HCT-116, 72 h, read-out: HCT-116 (GSK3β) viab. IC50); 5.09 in the assay on DLD-1 (DLD-1, 72 h, read-out: DLD-1 viab. IC50); 5.09 in the assay with DLD-1 (DLD-1, read-out: Basal_Viability ATP DLD-1). In addition, the pIC50 in the assay on HCT116 (HCT-116, 72 h, read-out: HCT-116 viab. IC50) was 5.21; with HCT116 (HCT-116, read-out: Basal_Viability ATP HCT116) it was 5.21; in assay [3], less than 4.70. In addition, the pEC50 in assay [4] (C2C12, read-out: Wnt pot. EC50) is less than 5.00; in the assay on NCI-H716 cells (Homo sapiens, NCI-H716, read-out: GLP1 sec. EC50), less than 5.00; with INS-1E cells [1] (Rattus norvegicus, INS-1E, read-out: Ins. sec. EC50) it was 5.44; in the assay on INS-1E cells [1] (Rattus norvegicus, INS-1E, read-out: Insulin Secretion), 5.44; in the assay on HeLa cells it was less than 5.00.

Turning to `CCN(CCCCOC(=O)c1ccc(OC)c(OC)c1)C(C)Cc1ccc(OC)cc1` (centres unmarked) [mebeverine, reference compound], the pIC50 with SW480 (SW480, 72 h, Table 2, 72 h, Cell TiterGlo, non-adherent, 20 coded, read-out: SW480 viab. IC50) is less than 4.70; in [5] (Table 2, primary assay tube area, 20 = no response in concentration-response, 20.1 = inactive in single concentration testing), less than 5.00; in assay [6] (HCT-116, read-out: HCT-116 (GSK3β) viab. IC50, Table 2, GSK3β inhibitor LY2090314 20 nM, 72 h, Cell TiterGlo, 20 coded), less than 4.70; in the assay with DLD-1 (DLD-1, 72 h, Table 2, 72 h, Cell TiterGlo, non-adherent, 20 coded, read-out: DLD-1 viab. IC50) it was less than 4.70; with HCT116 (HCT-116, 72 h, read-out: HCT-116 viab. IC50, Table 2, basal, 72 h, Cell TiterGlo, non-adherent, 20 coded), less than 4.70; in assay [3] (0.1 mM glucose, thallium flux), 5.77. Besides, the pEC50 was less than 5.00 in assay [4] (C2C12, Table 2, C2C12, […], 20 / 20.1 coded, read-out: Wnt pot. EC50); less than 5.00 in the assay with NCI-H716 cells (Homo sapiens, NCI-H716; read-out: GLP1 sec. EC50); 5.70 in the assay on INS-1E cells [1] (Rattus norvegicus, INS-1E; read-out: Ins. sec. EC50); 5.71 in the assay on INS-1E cells [1] (Rattus norvegicus; IC50 / EC50; INS-1E; read-out: Insulin Secretion); less than 5.00 with HeLa cells (IC50 / EC50). Besides, the “G2/M IC50 / EC50” value in the assay on HeLa cells was 20 (values shown as 20 indicate that the compound was tested in concentration-response and showed no response at the highest concentration tested (e.g. IC50 > 20 μM)).

Source of the values: article PMC4503722, “Novel Phenotypic Outcomes Identified for a Public Collection of Approved Drugs from a Publicly Accessible Panel of Assays” (PLoS ONE, 2015).
